The text below walks through data of patent publication US20080132533A1, “Solid Dispersion Comprising Tacrolimus and Entericcoated Macromolecule” (GL PharmTech Corp., priority 2005, published 2008).

In brackets after ≈: the same amount, converted by molar mass.

A word on the solubility: it is the concentration that dissolves in the medium under given conditions.

For data set [1] the following is noted: background art; mass unit printed as an image character; cited from earlier work.
Data set [2] can be described thus: Dynamic solubility test in water. The conditions noted are these: thermodynamic from solid, 100 mL water, 37° C., 200 rpm, read-out: Solubility of tacrolimus (mean ± SD). It counts as physicochemical. The method, then: The excessive specimens were loaded and appropriate aliquots were collected after 0.5, 1, 2, 4, and 8 hours, and the samples were analyzed by high performance liquid chromatography.

Regarding `C=CC[C@@H]1/C=C(\C)C[C@H](C)C[C@H](OC)[C@H]2O[C@@](O)(C(=O)C(=O)N3CCCC[C@H]3C(=O)O[C@H](/C(C)=C/[C@@H]3CC[C@@H](O)[C@H](OC)C3)[C@H](C)[C@@H](O)CC1=O)[C@H](C)C[C@@H]2OC` [Control, tacrolimus], the “Solubility of tacrolimus in water” value in data set [1] is 1˜2 /mL. Further, the solubility at 1 h in data set [2] (1 hr) stood at 0.28 ± 0.05 µg/mL (≈ 0.348 µM). Besides, the solubility at 2 h in data set [2] (2 hr) is 0.68 ± 0.02 µg/mL (≈ 0.846 µM). For the same molecule, the solubility at 4 h in data set [2] (4 hr) amounted to 0.74 ± 0.01 µg/mL (≈ 0.92 µM). Also, in data set [2] (8 hr), the solubility at 8 h was determined as 0.96 ± 0.05 µg/mL (≈ 1.19 µM).
